Drawing on the supplement of paper PMC10307832, this text covers relative viability for one cell line.

Common to all, as to experiment: relative viability (nuclei count vs DMSO), 5 days (fraction); higher = more cells survive
Compound in assay [1]: Cc1ccc2nc(NCCN)c3ncc(C)n3c2c1 + C[C@@H](Oc1cc(-c2cnn(C3CCNCC3)c2)cnc1N)c1c(Cl)ccc(F)c1Cl [Crizotinib] (partner 1 µM)
Put shortly:
(§1)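 For relative viability, nuclei counts in treated wells were divided by those in vehicle wells. Lung cancer cell lines had been pin-tool dosed in 1536-well plates the day after seeding and cultured for 5 days, then fixed and stained in one step (final 0.05% Triton X-100, 1% formaldehyde, 1 ug/ml Hoechst) and imaged at 4×. Doses were one drug alone or a fixed anchor-drug dose plus five library-drug doses (not always all listed) in √10 steps, and values are duplicate-plate medians.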

Compound in assay [2]: Cc1ccc2nc(NCCN)c3ncc(C)n3c2c1 + Cc1cc(Nc2cc(N3CCN(C)CC3)nc(Sc3ccc(NC(=O)C4CC4)cc3)n2)n[nH]1 [Tozasertib] (partner 0.1 µM)
Put shortly: as §1

Compound in assay [3]: Cc1ccc2nc(NCCN)c3ncc(C)n3c2c1 + Cc1nc(NC(=O)N2CCC[C@H]2C(N)=O)sc1-c1ccnc(C(C)(C)C(F)(F)F)c1 [Alpelisib] (partner 2 µM)
Put shortly:
as §1

Compound in assay [4]: Cc1ccc2nc(NCCN)c3ncc(C)n3c2c1 + Cc1nc(Nc2ncc(C(=O)Nc3c(C)cccc3Cl)s2)cc(N2CCN(CCO)CC2)n1 [Dasatinib] (partner 0.075 µM)
In short, it runs like this:
as §1

In the case of UMC-11, the relative viability in assay [1] (first compound 0.04 µM) was found to be 0.7; in assay [1] (first compound 0.1265 µM), 0.57; in assay [1] (first compound 0.4 µM), 0.6; in assay [1] (first compound 1.265 µM) it was 0.646; in assay [1] (first compound 4 µM) it was 0.481; in assay [2] (first compound 0.04 µM), 0.211. Besides, the relative viability was 0.233 in assay [2] (first compound 0.1265 µM); 0.209 in assay [2] (first compound 0.4 µM); 0.205 in assay [2] (first compound 1.265 µM); 0.194 in assay [2] (first compound 4 µM); 0.946 in assay [3] (first compound 0.04 µM); 0.906 in assay [3] (first compound 0.1265 µM). The relative viability in assay [3] (first compound 0.4 µM) was 1.03; in assay [3] (first compound 1.265 µM), 0.995; in assay [3] (first compound 4 µM), 0.817; in assay [4] (first compound 0.04 µM), 0.475; in assay [4] (first compound 0.1265 µM), 0.477; in assay [4] (first compound 0.4 µM), 0.431. Also, the relative viability in assay [4] (first compound 1.265 µM) amounted to 0.407; in assay [4] (first compound 4 µM), 0.387.
